According to US10953107B2, “Polypeptide compositions and methods for site-specific targeting of therapeutic agents” (Trustees of Boston University, priority 2018, dated 2021):
Where two headings read alike, the source gives them in different places.

Columns and labels:
[1] = first value of 'x vs. y', second value is an unnamed comparator arm, cited from earlier work; for OS: overall survival; for PFS: progression-free survival
[2] = test system: Panc1 Cells; experiment: ADC cytotoxicity, MTT cell viability assay; type: cell-based, human
[3] = test system: MIA PaCa2; experiment: ADC cytotoxicity, MTT cell viability assay; type: cell-based, human
Protocol: (§1) Cell viability was assessed by an MTT assay in Panc1 cells and other cell lines at 72 hours post-treatment with increasing concentrations of the ADC and relevant controls. The assay confluence was 20% at the start and up to 60% confluence.
(§2) Cell viability was assessed by an MTT assay in other pancreatic cancer cell lines.
(§3) Cell viability was assessed by an MTT assay in pancreatic cancer cell lines at 72 hours post-treatment with increasing concentrations of the ADC and relevant controls.

[4] = test system: Capan-1; experiment: ADC cytotoxicity, MTT cell viability assay; type: cell-based, human
Protocol: as §1, §2, §3

[5] = test system: BxPC-3; experiment: ADC cytotoxicity, MTT cell viability assay; type: cell-based
Protocol: as §1, §2, §3

[6] = test system: BJ fibroblasts; experiment: ADC cytotoxicity in normal cell lines, MTT assay
Protocol: (§4) Cell viability was assessed by an MTT assay in KV2 cells and other normal cell lines at 72 hours post-treatment with increasing concentrations of the ADC and relevant controls.
(§5) Cell viability was assessed by an MTT assay in normal cell lines at 72 hours post-treatment with increasing concentrations of the ADC and relevant controls.

[7] = test system: HUVECs; experiment: ADC cytotoxicity in normal cell lines, MTT assay; conditions: read-out: IC50 / cytotoxicity; HUVEC, additional characterization (FIG. 41)
Protocol: as §4, §5

[8] = test system: KV2 cells; experiment: ADC cytotoxicity in normal cell lines, MTT assay; conditions: read-out: IC50 / cytotoxicity
Protocol: as §4, §5

[9] = test system: mIMCD; experiment: ADC cytotoxicity in normal cell lines, MTT assay
Protocol: as §4, §5

[10] = test system: H6c7; experiment: ADC cytotoxicity in normal cell lines, MTT assay; type: cell-based; conditions: H6c7, additional characterization (FIG. 41)
[11] = test system: MIA PaCa2 Cells; experiment: Cell viability in response to increasing doses of mertansine (FIG. 19); type: cell-based, human; conditions: cell viability (FIG. 19)
Protocol: (§6) Cell viability was measured in response to increasing doses of mertansine in Panc1 and MIA PaCa2 cell lines to determine the IC50 compared to other chemotherapeutic agents (gemcitabine and Nab-paclitaxel) (FIG. 19). Panc1 cells are a human pancreatic cancer cell line isolated from a pancreatic carcinoma of ductal cell origin. MIA PaCa-2 cells are another type of pancreatic cancer cell line that was derived from the carcinoma of a patient.

[12] = test system: Panc1 Cells; experiment: as above; type: cell-based, human; conditions: cell viability (FIG. 19)
Protocol: as §6

[13] = Circular dichroism (CD): specificity and structural assembly of peptides; type: physicochemical; conditions: circular dichroism (FIG. 2A, FIG. 14A)
Excerpt: We designed and prepared peptide sequences that form a tetrameric coiled coil,^14,15 but discourage self-interaction (positively charged amino acids in docking, negatively charged in receiving).

[14] = read-out: IC50 / cytotoxicity, MTT (FIG. 32), NS = not significantly different from 100% viability of control
[15] = read-out: IC50 / cytotoxicity, additional characterization (FIG. 41)

C#Cc1cccc(Nc2ncnc3cc(OCCOC)c(OCCOC)cc23)c1 [Erlotinib]
OS [1]: 6.2 vs. 5.9 mo | PFS [1]: 3.8 vs. 3.6 mo

Nc1ccn([C@@H]2O[C@H](CO)[C@@H](O)C2(F)F)c(=O)n1 [Gemcitabine]
IC50 ([2]; Homo sapiens, PANC-1, Panc1, MTT, 72 hours (FIG. 28)): 700 nM | IC50 ([3]; Homo sapiens, MIA PaCa-2, MIA PaCa2, MTT (FIG. 29-30)): 256 nM

COc1cc2cc(c1Cl)N(C)C(=O)C[C@H](OC(=O)[C@H](C)N(C)C(=O)CCS)[C@]1(C)O[C@H]1[C@H](C)[C@@H]1C[C@@](O)(NC(=O)O1)[C@H](OC)/C=C/C=C(\C)C2 [Mertansine, mertansine]
IC50 ([2]; Panc1, MTT, 72 hours (FIG. 28-30)): 1.98 nM | IC50 ([2]; Panc1, additional characterization (FIG. 39)): 1.98 nM | IC50 ([4]; Capan-1, MTT (FIG. 30)): 22.1 nM | IC50 ([4]; Capan-1, additional characterization (FIG. 39)): 22.1 nM | IC50 ([3]; MIA PaCa2, MTT (FIG. 29-30)): 0.31 nM | IC50 ([3]; MIA PaCa2, additional characterization (FIG. 39)): 0.31 nM | IC50 ([5]; BxPC-3, MTT (FIG. 30)): 18.8 nM | IC50 ([5]; BxPC-3, additional characterization (FIG. 39)): 18.8 nM | IC50 [6, 14]: 16.8 nM | IC50 [6, 15]: 16.8 nM | IC50 [7]: 2.7 nM | IC50 ([8]; KV2, additional characterization (FIG. 41)): 289 nM | IC50 ([8]; KV-2, MTT, 72 hours (FIG. 31-32), NS = not significantly different from 100% viability of control): 95.5 nM | IC50 [9, 14]: 3 nM | IC50 [9, 15]: 3 nM | IC50 [10]: 2.4 nM | IC50 [11]: 0.268 nM | IC50 [12]: 1.19 nM

Cixutumumab
OS [1]: 7.0 vs. 6.7 mo | PFS [1]: 3.6 vs 3.6 mo

MK(LEEIVSE)2LEEIVTELEEIVSEVGER (MKLEEIVSELEEIVSELEEIVTELEEIVSEVGER) [Peptide V/E, acidic V/E-type docking peptide]
self-assembly / coiled coil formation [13]: do not self-assemble

MK(LKKIKSV)4VGER [Peptide V/K]
self-assembly / coiled coil formation [13]: do not self-assemble

Nimotuzumab
OS [1]: 8.6 vs. 6.0 mo | PFS [1]: 5.3 vs. 3.6 mo
